Laboratory results as given in PubChem BioAssay AID248 (DTP/NCI, 2004).
Values joined by “and” are separate entries in the source; they are usually repeats but may differ in a detail not shown here. Equal values may be shown once. Toxic doses and inconclusive results are not listed.

Test system: L1210 leukemia ip in BDF1 mice, survival T/C
Experiment: NCI In Vivo Anticancer Drug Screen. Data for tumor model L1210 Leukemia (intraperitoneal) in B6D2F1 (BDF1) mice
Conditions: endpoint: mean survival time, higher = longer survival
Procedure, shortened: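 Ratio derived from survival: compound-dosed mice over vehicle-dosed mice, all bearing a transplantable tumor.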

[1] = dose: 100.0 mg/kg/injection, schedule: Q04DX003 (ip), vehicle: saline
[2] = dose: 200.0 mg/kg/injection, schedule: Q04DX003 (ip), vehicle: saline
[3] = dose: 100.0 mg/kg/injection, schedule: Q01DX009 (ip), vehicle: Klucel (hydroxypropylcellulose) (HPC)
[4] = dose: 100.0 mg/kg/injection, schedule: Q04DX003 (ip), vehicle: Klucel (hydroxypropylcellulose) (HPC)
[5] = dose: 200.0 mg/kg/injection, schedule: Q01DX009 (ip), vehicle: Klucel (hydroxypropylcellulose) (HPC)
[6] = dose: 200.0 mg/kg/injection, schedule: Q04DX003 (ip), vehicle: Klucel (hydroxypropylcellulose) (HPC)
[7] = dose: 400.0 mg/kg/injection, schedule: Q04DX003 (ip), vehicle: Klucel (hydroxypropylcellulose) (HPC)
[8] = dose: 50.0 mg/kg/injection, schedule: Q04DX003 (ip), vehicle: saline
[9] = dose: 100.0 mg/kg/injection, schedule: Q04DX003 (ip), vehicle: saline with Tween-80
[10] = dose: 100.0 mg/kg/injection, schedule: Q01DX001 (ip), vehicle: saline with Tween-80
[11] = dose: 200.0 mg/kg/injection, schedule: Q01DX001 (ip), vehicle: saline with Tween-80
[12] = dose: 400.0 mg/kg/injection, schedule: Q01DX001 (ip), vehicle: saline with Tween-80
[13] = dose: 100.0 mg/kg/injection, schedule: Q01DX009 (ip), vehicle: saline with Tween-80
[14] = dose: 200.0 mg/kg/injection, schedule: Q01DX009 (ip), vehicle: saline with Tween-80
[15] = dose: 50.0 mg/kg/injection, schedule: Q01DX009 (ip), vehicle: saline with Tween-80
[16] = dose: 200.0 mg/kg/injection, schedule: Q04DX003 (ip), vehicle: saline with Tween-80
[17] = dose: 400.0 mg/kg/injection, schedule: Q04DX003 (ip), vehicle: saline with Tween-80
[18] = dose: 100.0 mg/kg/injection, schedule: Q01DX001 (ip), vehicle: saline
[19] = dose: 200.0 mg/kg/injection, schedule: Q01DX001 (ip), vehicle: saline
[20] = dose: 400.0 mg/kg/injection, schedule: Q01DX001 (ip), vehicle: saline
[21] = dose: 400.0 mg/kg/injection, schedule: Q01DX009 (ip), vehicle: saline with Tween-80

O=C(O)c1ccccc1-c1ccc([N+](=O)[O-])cc1Cl
T/C (dose: 177.0 mg/kg/injection, schedule: Q01DX001 (ip), vehicle: carboxymethylcellulose (CMC)): 106 % of control | T/C (dose: 266.0 mg/kg/injection, schedule: Q01DX001 (ip), vehicle: carboxymethylcellulose (CMC)): 98 % of control | T/C (dose: 400.0 mg/kg/injection, schedule: Q01DX001 (ip), vehicle: carboxymethylcellulose (CMC)): 104 % of control

C=C(C)C(C(=O)OC)n1scc(NCc2ccccc2)c1=O (stereo not given)
T/C [1]: 91 % of control | T/C [2]: 91 % of control | T/C (dose: 400.0 mg/kg/injection, schedule: Q04DX003 (ip), vehicle: saline): 89 % of control

O=[N+]([O-])c1ccc(Oc2ccc[n+]([O-])c2)nc1
T/C [3]: 103 % of control | T/C [4]: 93 % of control | T/C [5]: 101 % of control | T/C [6]: 96 % of control | T/C (dose: 400.0 mg/kg/injection, schedule: Q01DX009 (ip), vehicle: Klucel (hydroxypropylcellulose) (HPC)): 98 % of control | T/C [7]: 95 % of control

CN(C)C1CCN(Cc2ccccc2)CC1
T/C (dose: 50.0 mg/kg/injection, schedule: Q01DX009 (ip), vehicle: saline): 94 % of control | T/C [8]: 100 % of control | T/C (dose: 100.0 mg/kg/injection, schedule: Q01DX009 (ip), vehicle: saline): 96 % of control | T/C [1]: 97 % of control | T/C (dose: 200.0 mg/kg/injection, schedule: Q01DX009 (ip), vehicle: saline): 93 % of control | T/C [2]: 92 % of control

CCCCP(=O)(CCCC)Oc1cccc([N+](=O)[O-])c1
T/C (dose: 25.0 mg/kg/injection, schedule: Q04DX003 (ip), vehicle: saline with Tween-80): 97 % of control | T/C (dose: 50.0 mg/kg/injection, schedule: Q04DX003 (ip), vehicle: saline with Tween-80): 96 % of control | T/C [9]: 95 % of control and 102 % of control

NCCCC(=O)NCCCCCCCCCCNC(=O)CCCN
T/C (dose: 3.0 mg/kg/injection, schedule: Q01DX012 (ip), vehicle: saline): 105 % of control | T/C (dose: 10.0 mg/kg/injection, schedule: Q01DX012 (ip), vehicle: saline): 108 % of control | T/C (dose: 30.0 mg/kg/injection, schedule: Q01DX012 (ip), vehicle: saline): 103 % of control

CO[C@H]1/C=C/O[C@@]2(C)Oc3c(C)c(O)c4c(O)c(c(/C=N/N5CCNCC5)c(O)c4c3C2=O)NC(=O)/C(C)=C\C=C\[C@H](C)[C@H](O)[C@@H](C)[C@@H](O)[C@@H](C)C(OC(C)=O)[C@@H]1C (stereo not given in full)
T/C (dose: 25.0 mg/kg/injection, schedule: Q01DX001 (ip), vehicle: water): 98 % of control | T/C (dose: 25.0 mg/kg/injection, schedule: Q01DX009 (ip), vehicle: Klucel (hydroxypropylcellulose) (HPC)): 100 % of control | T/C (dose: 50.0 mg/kg/injection, schedule: Q01DX001 (ip), vehicle: water): 102 % of control | T/C (dose: 50.0 mg/kg/injection, schedule: Q01DX009 (ip), vehicle: Klucel (hydroxypropylcellulose) (HPC)): 94 % of control | T/C (dose: 100.0 mg/kg/injection, schedule: Q01DX001 (ip), vehicle: water): 101 % of control | T/C [3]: 94 % of control | T/C (dose: 200.0 mg/kg/injection, schedule: Q01DX001 (ip), vehicle: water): 106 % of control | T/C [5]: 100 % of control | T/C (dose: 400.0 mg/kg/injection, schedule: Q01DX001 (ip), vehicle: water): 102 % of control

O=C(NC(=O)c1ccccc1)C(=O)c1ccccc1
T/C [10]: 94 % of control | T/C [11]: 105 % of control | T/C [12]: 87 % of control

CN1CC2(Cc3ccccc3)c3ccccc3NC2(NC(=O)CCl)C1=O (stereo not given)
T/C (dose: 25.0 mg/kg/injection, schedule: Q04DX002 (ip), vehicle: saline with Tween-80): 87 % of control | T/C (dose: 50.0 mg/kg/injection, schedule: Q04DX002 (ip), vehicle: saline with Tween-80): 90 % of control | T/C (dose: 100.0 mg/kg/injection, schedule: Q04DX002 (ip), vehicle: saline with Tween-80): 91 % of control

CC(C)(C)OC(=O)NCCCCC(NC(=O)OCc1ccccc1)C(=O)Oc1ccc([N+](=O)[O-])cc1 (stereo not given)
T/C [13]: 88 % of control | T/C [14]: 93 % of control

Cc1cc(C)c(NC(=O)NCCCl)c(C)c1
T/C [15]: 103 % of control | T/C [13]: 109 % of control | T/C [9]: 91 % of control | T/C [14]: 116 % of control | T/C [16]: 93 % of control | T/C [17]: 117 % of control

COC1(c2ccccc2)OC12CC1CCC2C1 (stereo not given)
T/C [8]: 98 % of control | T/C [18]: 95 % of control | T/C [1]: 100 % of control | T/C [19]: 101 % of control | T/C [2]: 100 % of control | T/C [20]: 95 % of control

CC(C)(COC(=O)COc1ccc(Cl)cc1Cl)[N+](=O)[O-]
T/C [3]: 97 % of control | T/C [5]: 92 % of control

CC(=O)OC/N=[N+](/C)[O-]
T/C (dose: 2.0 mg/kg/injection, schedule: Q01DX Z (ip), vehicle: saline): 98 % of control | T/C (dose: 4.0 mg/kg/injection, schedule: Q01DX Z (ip), vehicle: saline): 110 % of control | T/C (dose: 6.0 mg/kg/injection, schedule: Q01DX Z (ip), vehicle: saline): 97 % of control | T/C (dose: 8.0 mg/kg/injection, schedule: Q01DX Z (ip), vehicle: saline): 104 % of control | T/C (dose: 12.5 mg/kg/injection, schedule: Q01DX Z (ip), vehicle: saline): 91 % of control

Clc1ccc(C=NCCN=Cc2ccc(Cl)c(Cl)c2)cc1Cl
T/C (dose: 25.0 mg/kg/injection, schedule: Q01DX009 (ip), vehicle: saline with Tween-80): 92 % of control | T/C [15]: 90 % of control | T/C [13]: 103 % of control | T/C [9]: 91 % of control | T/C [14]: 98 % of control | T/C [16]: 91 % of control | T/C [21]: 101 % of control | T/C [17]: 95 % of control

CC12CCC(CC1)C(O)C2 (stereo not given)
T/C [10]: 104 % of control | T/C [9]: 97 % of control | T/C [11]: 101 % of control | T/C [16]: 101 % of control | T/C [12]: 98 % of control | T/C [17]: 87 % of control

CCCC(=O)OCC1OC(n2ccc(N)nc2=O)C(O)C1OC(=O)CCC (stereo not given)
T/C (dose: 60.0 mg/kg/injection, schedule: Q01DX005 (ip), vehicle: Klucel (hydroxypropylcellulose) (HPC)): 183 % of control | T/C (dose: 90.0 mg/kg/injection, schedule: Q01DX005 (ip), vehicle: Klucel (hydroxypropylcellulose) (HPC)): 152 % of control | T/C (dose: 134.0 mg/kg/injection, schedule: Q01DX005 (ip), vehicle: Klucel (hydroxypropylcellulose) (HPC)): 158 % of control | T/C (dose: 200.0 mg/kg/injection, schedule: Q01DX005 (ip), vehicle: Klucel (hydroxypropylcellulose) (HPC)): 162 % of control and 170 % of control

COC(=O)/C=C/c1ccc(OC)c(OC)c1
T/C [4]: 93 % of control | T/C [6]: 95 % of control | T/C [7]: 102 % of control

CC(C)CCS(=O)(=O)O
T/C (dose: 50.0 mg/kg/injection, schedule: Q01DX001 (ip), vehicle: saline): 104 % of control | T/C [18]: 104 % of control | T/C [19]: 98 % of control | T/C [20]: 102 % of control

OCC1OC(c2[nH]nc3c([Se])ncnc23)C(O)C1O (stereo not given)
T/C (dose: 1.56 mg/kg/injection, schedule: Q01DX005 (ip), vehicle: saline): 95 % of control | T/C (dose: 1.56 mg/kg/injection, schedule: Q01DX009 (ip), vehicle: saline): 95 % of control | T/C (dose: 3.12 mg/kg/injection, schedule: Q01DX005 (ip), vehicle: saline): 97 % of control | T/C (dose: 3.12 mg/kg/injection, schedule: Q01DX009 (ip), vehicle: saline): 100 % of control | T/C (dose: 6.25 mg/kg/injection, schedule: Q01DX005 (ip), vehicle: saline): 99 % of control | T/C (dose: 6.25 mg/kg/injection, schedule: Q01DX009 (ip), vehicle: saline): 97 % of control | T/C (dose: 12.5 mg/kg/injection, schedule: Q01DX009 (ip), vehicle: saline): 90 % of control

CCCN(CCC)CC(C)(C)CO
T/C [15]: 96 % of control | T/C [13]: 101 % of control

CCOC(=O)C(=CN1CCOCC1)C(=O)OCC
T/C [13]: 100 % of control | T/C [9]: 120 % of control | T/C [14]: 100 % of control | T/C [16]: 102 % of control | T/C [21]: 100 % of control | T/C [17]: 98 % of control
